We go through six compounds from ChEMBL document CHEMBL4145648, “Swinhoeisterols from the South China Sea Sponge Theonella swinhoei” (J Nat Prod, 2018).

The target in this test is Histone acetyltransferase p300 (Homo sapiens, UniProt Q09472). The test is described as follows: Inhibition of human p300 expressed in Escherichia coli incubated for 15 mins followed by [3H]acetyl-CoA/histone addition.
Histone acetyltransferase p300, sequence (Q09472 whole entry): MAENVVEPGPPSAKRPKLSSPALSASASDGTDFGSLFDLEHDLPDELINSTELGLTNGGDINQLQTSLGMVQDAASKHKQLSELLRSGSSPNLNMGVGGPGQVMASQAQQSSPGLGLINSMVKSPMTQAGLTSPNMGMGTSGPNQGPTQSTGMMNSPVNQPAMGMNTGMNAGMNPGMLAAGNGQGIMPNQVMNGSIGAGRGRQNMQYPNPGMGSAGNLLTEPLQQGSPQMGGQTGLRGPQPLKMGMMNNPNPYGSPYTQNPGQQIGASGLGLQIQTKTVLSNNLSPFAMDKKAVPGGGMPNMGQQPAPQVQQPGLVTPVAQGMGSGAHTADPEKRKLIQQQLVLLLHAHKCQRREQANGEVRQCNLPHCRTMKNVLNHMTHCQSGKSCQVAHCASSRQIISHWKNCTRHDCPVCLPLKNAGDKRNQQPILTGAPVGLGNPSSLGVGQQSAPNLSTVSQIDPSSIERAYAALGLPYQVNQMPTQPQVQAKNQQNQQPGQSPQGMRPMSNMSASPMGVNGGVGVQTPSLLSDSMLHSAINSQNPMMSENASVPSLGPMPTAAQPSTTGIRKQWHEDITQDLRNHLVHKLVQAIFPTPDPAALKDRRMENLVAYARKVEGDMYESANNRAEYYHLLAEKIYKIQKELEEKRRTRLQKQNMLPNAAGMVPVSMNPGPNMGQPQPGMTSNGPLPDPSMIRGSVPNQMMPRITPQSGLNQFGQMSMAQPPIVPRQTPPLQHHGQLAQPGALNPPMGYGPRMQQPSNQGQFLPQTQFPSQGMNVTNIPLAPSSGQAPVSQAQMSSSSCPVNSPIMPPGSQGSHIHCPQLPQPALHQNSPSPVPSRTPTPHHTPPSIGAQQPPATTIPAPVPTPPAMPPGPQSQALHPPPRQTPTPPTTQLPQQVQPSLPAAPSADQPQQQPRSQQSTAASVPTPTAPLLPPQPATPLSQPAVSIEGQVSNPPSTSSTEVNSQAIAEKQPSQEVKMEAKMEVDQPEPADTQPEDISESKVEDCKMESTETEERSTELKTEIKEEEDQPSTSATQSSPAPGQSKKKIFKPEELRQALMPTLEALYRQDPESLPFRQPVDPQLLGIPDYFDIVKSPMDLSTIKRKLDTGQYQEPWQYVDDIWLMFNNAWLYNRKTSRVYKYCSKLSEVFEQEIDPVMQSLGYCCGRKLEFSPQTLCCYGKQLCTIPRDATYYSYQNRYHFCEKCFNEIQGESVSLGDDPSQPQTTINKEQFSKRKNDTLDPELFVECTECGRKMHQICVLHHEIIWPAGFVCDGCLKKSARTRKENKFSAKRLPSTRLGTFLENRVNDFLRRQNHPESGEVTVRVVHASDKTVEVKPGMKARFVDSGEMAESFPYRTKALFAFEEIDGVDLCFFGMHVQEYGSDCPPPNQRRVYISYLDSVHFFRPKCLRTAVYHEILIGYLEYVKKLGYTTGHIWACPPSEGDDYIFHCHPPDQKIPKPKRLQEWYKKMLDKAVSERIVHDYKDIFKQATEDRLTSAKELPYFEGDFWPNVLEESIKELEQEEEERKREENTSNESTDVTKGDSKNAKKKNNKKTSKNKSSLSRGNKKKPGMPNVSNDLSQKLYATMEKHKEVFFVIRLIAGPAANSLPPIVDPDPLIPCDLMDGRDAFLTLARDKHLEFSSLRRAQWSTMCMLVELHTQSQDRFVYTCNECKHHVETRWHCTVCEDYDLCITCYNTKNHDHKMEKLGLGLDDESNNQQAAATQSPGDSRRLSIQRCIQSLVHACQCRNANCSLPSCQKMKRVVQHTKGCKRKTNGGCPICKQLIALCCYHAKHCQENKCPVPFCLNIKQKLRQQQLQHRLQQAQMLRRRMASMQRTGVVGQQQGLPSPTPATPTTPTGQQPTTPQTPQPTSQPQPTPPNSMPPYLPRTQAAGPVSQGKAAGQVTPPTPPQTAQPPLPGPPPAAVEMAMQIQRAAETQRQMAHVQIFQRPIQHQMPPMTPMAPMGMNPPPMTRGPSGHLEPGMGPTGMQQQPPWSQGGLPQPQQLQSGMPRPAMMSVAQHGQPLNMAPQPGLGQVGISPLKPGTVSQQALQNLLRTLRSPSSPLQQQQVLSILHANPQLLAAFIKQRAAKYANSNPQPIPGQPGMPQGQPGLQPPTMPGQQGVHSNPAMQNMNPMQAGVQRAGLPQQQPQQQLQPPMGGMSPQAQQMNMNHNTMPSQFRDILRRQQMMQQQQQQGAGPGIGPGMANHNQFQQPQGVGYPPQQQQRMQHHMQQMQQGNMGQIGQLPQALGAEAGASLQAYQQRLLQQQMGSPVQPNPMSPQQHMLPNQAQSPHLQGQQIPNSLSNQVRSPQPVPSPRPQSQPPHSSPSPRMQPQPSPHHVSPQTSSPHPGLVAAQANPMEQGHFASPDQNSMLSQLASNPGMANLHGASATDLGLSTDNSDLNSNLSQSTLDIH
Turning to `C=C1[C@@H](O)CC[C@@]2(C)[C@H]1C[C@]1(O)C(=O)CC[C@H]([C@H](C)CC[C@@H](C)C(C)C)[C@@]3(C)CC[C@]24O[C@@]413`, the concentration for half-maximal inhibition (IC50) (in general, the concentration that inhibits the measured activity by half) is above 10 µM.

In the case of `C=C(C)[C@H](CC=C(C)C)C[C@]12C[C@H](CC=C(C)C)C(C)(C)[C@](CC=C(C)C)(C(=O)C(C(=O)c3ccc(O)c(O)c3)=C1O)C2=O`, the midpoint of inhibition, the IC50, lay at 0.5 µM. This lies in the sub-micromolar range.

For the compound `C=C1[C@@H](O)CC[C@@]2(C)[C@H]1CC1=C3[C@@H]2CC[C@]3(C)[C@@H]([C@H](C)CC[C@@H](C)C(C)C)CCC1=O`, the IC50 is above 10 µM.

Consider `C=C1[C@@H](O)CC[C@]2(C)C3=C4[C@@H](C[C@@H]12)C(=O)CC[C@H]([C@H](C)CC[C@@H](C)C(C)C)[C@@]4(C)CC3`, for which the IC50 was 3.3 µM.

As to `C=C1[C@@H](O)CC[C@@]2(C)[C@H]1C[C@H]1C(=O)CC[C@H]([C@H](C)CC[C@@H](C)C(C)C)[C@@]3(C)CC[C@]24O[C@]143`, the IC50 was determined as 8.8 µM.

Compound `C=C1[C@@H](O)CC[C@]2(C)[C@H]3CC[C@@]4(C)[C@]35O[C@]4([C@H](C)CC[C@@H](C)C(C)C)CCC(=O)[C@@H]5C[C@@H]12` returned a concentration for half-maximal inhibition (IC50) above 10 µM.
